What was measured:
calf DHFR = biological target: T1, calf DHFR (Bos taurus, UniProt P00376); assay: DHFR enzyme assay, calf liver homogenate; type: biochemical
T1 construct: tested using homogenates of calf liver, rat liver and cultures of P. falciparum; from tissue; host or cells: calf liver homogenate
T1 sequence (P00376 1-187): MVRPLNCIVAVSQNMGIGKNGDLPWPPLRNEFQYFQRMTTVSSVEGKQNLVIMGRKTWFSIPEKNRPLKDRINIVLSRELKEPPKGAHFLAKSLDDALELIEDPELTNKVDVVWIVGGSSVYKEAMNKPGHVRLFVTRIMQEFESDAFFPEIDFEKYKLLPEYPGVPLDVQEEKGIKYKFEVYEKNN
Procedure: The ability of atrazine to inhibit dihydrofolate reductase (DHFR) is also tested using homogenates of calf liver, rat liver and cultures of P. falciparum. Atrazine's ability to inhibit mammalian DHFR (i.e., calf DHFR and rat DHFR) as well as malarial DHFR is determined using standard enzyme assays and the Michaelis-Menton analysis. The Michaelis-Menton hypothesis states that a complex is formed between an enzyme and its substrate and that the complex then dissociates to yield free enzyme and the reaction products, with the rate of dissociation determining the overall rate of substrate-product conversion. For a more complete review of the Michaelis constant, see Benet et al., 1996, Pharmacokinetics, Chapter 1:3-27, In Goodman & Gilman's The Pharmacological Basis of Therapeutics, Ninth Edition, McGraw-Hill; and Ross, 1996, Pharmacodynamics, Chapter 2:29-41, Id.

P. falciparum = assay: Isobologram analysis of chloroquine and atrazine in vitro against P. falciparum; type: cell-based, Plasmodium falciparum; settings: each drug alone at its ID50, or combinations of the stated fractions of each ID50
Procedure: Drugs can interact in additive, antagonistic or synergistic manner. See Berenbaum, J. Infect. Dis., 137:122-130, 1978. The isobologram assay permits determination of the type of interaction that occurs between drugs of interest. The ID50, or […], for both drugs was calculated.
Next, the drugs were tested in vitro at the ID50 for each drug alone and various combinations of drugs as described below:
These combinations of drugs were tested in vitro against P. falciparum and the data analyzed.

[1] = test system: wild type Plasmodium falciparum; assay: In vitro red blood cell culture infected with wild type Plasmodium falciparum, percent RBCs infected; type: cell-based; settings: 0.006 μM to 0.4 μM

## CCNc1nc(Cl)nc(NC(C)C)n1 [atrazine, 2-chloro-4-ethylamino-6-isopropylamino-s-triazine]
Calf DHFR
  inhibition of DHFR: does not inhibit DHFR
P. falciparum
  Percent Growth Inhibition: 58%
[1]
  effectiveness compared with chloroquine (FIG. 5): as effective and potent as chloroquine

Reference: patent US20030109529A1, “Use of s-triazines for treating Apicomplexan parasitic infections” (priority 1999, published 2003)
